Assay results as given in paper PMC6966663 (Cancers, 2019).

Columns and labels:
p-PRAS40 = system: p-PRAS40; set-up: method as in PMID 31118521; details: at 4 h post-dosing; cited from earlier work
[1] = set-up: method as in PMID 31478386; details: clinical; cited from earlier work
[2] = human, in vivo
Description: Safety evaluations included adverse events (AEs), vital signs, laboratory tests, and 12-lead electrocardiograms at screening, at planned times during each cycle, during follow-up, and up to 30 days after the last dose. Adverse events were graded using the National Cancer Institute Common CTCAE version 4.03.
Descriptive statistics were used to summarize demographic data, other baseline characteristics, AEs, safety parameters, and tumor assessment data. […] All subjects who completed the study were included in the evaluation of PD/PK. […] The incidence of treatment-emergent adverse events and drug-related adverse events, respectively, was summarized by treatment in frequency tables using the CTCAE grade.

[3] = system: cells with PI3K/AKT/mTOR pathway alterations; details: cited from earlier work
[4] = system: HR+ advanced breast cancer; set-up: method as in PMID 31091374; details: in combination with fulvestrant, cited from earlier work

NC1(C(=O)N[C@@H](CCO)c2ccc(Cl)cc2)CCN(c2ncnc3[nH]ccc23)CC1 [AZD5363]
Reduction in p-PRAS40 (p-PRAS40): about 60% | Rate of Grade 3 hyperglycemia [1]: up to 39.0%

NC(=O)c1ccc2nc(-c3ccc(C4(N)CCC4)cc3)c(-c3ccccc3)n2n1 [BAY 1125976]
Patients with at least one treatment-emergent adverse event (TEAE) [2]: 77 (97.5%) patients | Patients with serious adverse events (SAEs) [2]: 33 patients | IC50 of inhibition of proliferation [3]: submicromolar

Cc1nc(NC(=O)N2CCC[C@H]2C(N)=O)sc1-c1ccnc(C(C)(C)C(F)(F)F)c1 [alpelisib]
PFS ([4]; PIK3CA-mutated HR+ advanced breast cancer after previous endocrine therapy, versus 5.7 for control): 11.0 months | Overall response rate ([4]; patients without PIK3CA mutation as printed, versus 12.8% placebo control): 26.6%
